{"source": "patent US6369294B1", "about": "“Methods comprising apoptosis inhibitors for the generation of transgenic pigs” (Texas A&M University System, priority 1996, dated 2002)", "molecules": {"B1": {"name": "uteroferrin: purple colored, progesterone-induced iron-containing glycoprotein secreted by uterine endometrial epithelium of pigs (protein, UniProt P09889 21-340, looked up)", "Tartrate-resistant acid …": "GTRTNTRTAPTPILRFVAVGDWGGVPNAPFHTAREMANAKAIATTVKTLGADFILSLGDNFYFTGVHDAKDKRFQETFEDVFSDPSLRNVPWHVLAGNHDHLGNVSAQIAYSKISKRWNFPSPYYRLRFKIPRSNVSVAIFMLDTVTLCGNSDDFVSQQPERPRNLALARTQLAWIKKQLAAAKEDYVLVAGHYPVWSIAEHGPTHCLVKQLLPLLTTHKVTAYLCGHDHNLQYLQDENGLGFVLSGAGNFMDPSKKHLRKVPNGYLRFHFGAENSLGGFAYVEITPKEMSVTYIEASGKSLFKTKLPRRARSEHQHRRA"}, "B2": {"name": "rCNTF: rat ciliary neurotrophic factor (protein, UniProt P20294 1-200, looked up)", "Ciliary neurotrophic factor": "MAFAEQTPLTLHRRDLCSRSIWLARKIRSDLTALMESYVKHQGLNKNINLDSVDGVPVASTDRWSEMTEAERLQENLQAYRTFQGMLTKLLEDQRVHFTPTEGDFHQAIHTLMLQVSAFAYQLEELMVLLEQKIPENEADGMPATVGDGGLFEKKLWGLKVLQELSQWTVRSIHDLRVISSHQMGISALESHYGAKDKQM"}}, "key": {"[1]": {"test_system": "porcine primordial germ cells", "assay": "Isolation of porcine primordial germ cells with bFGF", "assay_type": "cell-based", "procedure": "(§1) STO feeder cells were plated in PES media alone for 48 hours or in PES media containing 40 ng/ml bFGF for the same period of time. […] It is not presently known whether bFGF is acting directly on the proliferation rate of the PGCs or whether the effect is through a change in the physiology of the STO cells which then effects the PGCs.\nThirdly, when low density feeders are used to culture porcine PGCs, very few colonies grow and the few that do grow are always in direct contact with the feeder cells. No colonies grow on the plastic, even if surrounded by STO cells. Thus it is unlikely that the STO's are producing a soluble factor. Additionally, to isolate porcine PGC-derived cells, it is an absolute requirement that bFGF be added to the feeders. The bFGF drastically changes the morphology of the feeder cells. Thus the bFGF may be acting on the feeder to promote/inhibit production of a matrix component versus acting directly on the PGC cells. Also, very few colonies are obtained when plating porcine PGCs on feeders made within 6 hours. However, feeders made 24 hours prior to plating yield much better results. Thus this period of time may be required for synthesis and secretion of some matrix component."}, "STO feeder cells": {"test_system": "STO feeder cells", "assay": "STO feeder cells plated with or without bFGF, morphology", "assay_type": "cell-based, mouse", "conditions": "PES media containing 40 ng/ml bFGF for 48 hours", "procedure": "as §1"}, "porcine ICM (pICM)": {"test_system": "porcine ICM (pICM)", "assay": "In vitro differentiation assay of cultured porcine inner cell mass, graded 1 to 5", "assay_type": "cell-based", "conditions": "for differentiation score on day two, study 2: scale 1 (fully undifferentiated) to 5 (fully differentiated), p<0.05", "excerpt": "The inventors have developed a grading system to detect changes in the differentiation status of in vitro cultured PGC cells or the pICM. In the first study porcine ICMs (day 7) were isolated by immunosurgery and cultured 4 days in DMEM-based medium (D medium) or DMEM/Hams F-10 (1:1)-based medium (D/H medium) with or without human leukemia inhibitory factor (hLIF; 1000 μ/ml). For the second study pICMs were collected as above and cultured 4 days in one of six treatments: control medium, human leukemia inhibitory factor (hLIF; 1000 μ/ml), human interleukin-6 (hIL-6; 100 ng/ml), hIL-6+hIL-6 soluble receptor (hIL6+sR; 100 ng/ml+2.5 μg/ml), human oncostatin M (hOSM; 100 ng/ml), or rat ciliary neurotrophic factor (rCNTF; 100 ng/ml). All cytokines were prepared in Dulbecco's Modified Eagles Medium/Hams F-10 (1:1)-based medium. The colonies were photographed daily for morphological analysis.\npICMs were categorized into one of two types based on their morphological profile: type A, non-epithelial or type B, epithelial-like. The pICM differentiation was evaluated using standardized differentiation profiles. Each pICM series was graded on a scale of 1 (fully undifferentiated) to 5 (fully differentiated) for each time point. Differentiation was verified by alkaline phosphatase activity, cytokeratin staining, and scanning electron microscopy. […] Furthermore, addition of rCNTF gave the lowest overall mean differentiation score (2.53±0.15). […] The grading system employed was thus an effective tool for detecting treatment effects on differentiation of the developing pICM."}, "PGC [2]": {"test_system": "PGC", "assay": "Optimal concentration of α2-macroglobulin: ratio of AP positive colonies to control samples", "assay_type": "cell-based", "conditions": "for ratio of AP positive colonies compared to control samples: three trials", "procedure": "An additional study was performed to determine the optimal concentration of α2-macroglobulin. The ratio of AP positive colonies in samples containing either 1 μg/ml or 0.5 μg/ml as compared to control samples was determined for three trials. The ratios at 1 μg/ml were 0.81±0.37, 0.84±0.23 and 0.83±0.27, while at 0.5 μg/ml they were 1.98±0.36, 1.43±0.27 and 1.70±0.41."}, "bovine PGC's": {"test_system": "bovine PGC's", "assay": "Third passage bovine PGC colonies with or without α2-macroglobulin (preliminary study)", "assay_type": "cell-based", "excerpt": "The ability of colonies cultured and passaged in the presence or absence of α2-macroglobulin to survive in an undifferentiated state for multiple passages is currently being studied. In a preliminary study twice as many colonies were obtained from third passage bovine PGC's (22 versus 45) cultured in media with α2-macroglobulin than in media without the protease inhibitor. Moreover, the colonies appear on average 2-3 days earlier and are of larger size when cultured in the presence of α2-macroglobulin."}, "cultured PGCs": {"test_system": "cultured PGCs", "assay": "Passage of cultured PGCs in presence or absence of α2-macroglobulin, alkaline phosphatase positive colonies", "assay_type": "cell-based", "excerpt": "The effect of α2-macroglobulin on the ability to passage cells was also studied. To test the ability of α2-macroglobulin to protect against the losses normally observed when cultured PGCs are trypsinized, cells were passaged twice in the presence or absence of α2-macroglobulin, the colonies fixed, stained for alkaline phosphatase and the number of alkaline phosphatase positive colonies determined. PGCs were collected in PES and plated on feeder layers in the presence or absence of media containing 1 μg/ml α2-macroglobulin. Colonies were allowed to grow for 7 days, trypsinized as described above and plated again in media with or without α2-macroglobulin. Samples were done in duplicate and corrected for the number of added cells."}, "PGCs": {"test_system": "PGCs", "assay": "Effect of isolation procedure and α2-macroglobulin on PGCs developing into alkaline phosphatase positive colonies", "assay_type": "cell-based, pig", "conditions": "α2-macroglobulin 1 μg/ml; for alkaline phosphatase positive colonies (replicates R1-R3): counted six days later", "procedure": "Genital ridges from two day 25-27 pig fetuses were collected, divided into four groups (a 2×2 study), placed in PES media either with α2-macroglobulin at 1 μg/ml (2 groups) or without α2-macroglobulin (2 groups), and immediately either needle teased to allow colonies to seep out (2 groups) or macerated (2 groups) with the help of a syringe. Briefly, the ridges were broken into small pieces by pressing them against the bottom of a dish with the back of a syringe. The disrupted tissues were further broken up by passing them several times through a 20 gauge needle until all large tissue clumps had been disrupted. Following tissue disruption, samples were centrifuged for 3-5 minutes at 250×g to settle tissue fragments and supernatant containing mostly single cells collected and centrifuged at 1000×g for 5 min. The resulting pellet was resuspended in PES containing LIF, SCF, and bFGF with or without human α2-macroglobulin, cells counted, and plated in triplicate in feeder layers.\nSix days later colonies were fixed, stained for alkaline phosphatase activity, and counted."}, "PGC [3]": {"test_system": "PGC", "assay": "Addition of uteroferrin or uteroferrin rose to PGC culture media", "assay_type": "cell-based", "procedure": "The pellet, containing PGCs, was resuspended in PES media Following collection, the cells were rinsed 3 times by centrifugation and resuspended in PEG medium containing soluble recombinant human stem cells factor at 30 ng/ml, human basic fibroblast growth factor at 40 ng/ml, and LIF at 20 ng/ml and plated onto STO feeder layers. Additionally, the effect of the addition of 100 ng/ml of uteroferrin in the presence or absence of stem cell factor on the number of alkaline phosphatase positive colonies was determined.\nIn order to determine the beneficial effect provided by the serpin alone, a broad range protease inhibitor called α2-macroglobulin was studied (Feige et al., 1996)."}, "[4]": {"conditions": "rCNTF 100 ng/ml, hLIF 1000 μ/ml"}}, "note": "Several values for one entry are separate records, joined by “and”; a condition that tells them apart may be missing. Identical values can stand only once."}
{"molecule": "bFGF: basic fibroblast growth factor", "values": [{"measurement": "requirement for the isolation of porcine primordial germ cells", "setting": "[1]", "value": "essential component for the isolation of porcine primordial germ cells"}, {"measurement": "change in morphology of the feeder cells", "setting": "STO feeder cells", "value": "drastic change is seen in the morphology of the feeder cells"}]}
{"molecule": "hLIF: human leukemia inhibitory factor", "values": [{"measurement": "delay of differentiation of the developing pICM, study 1", "setting": "porcine ICM (pICM); hLIF 1000 μ/ml, D or D/H medium, 4 days, p=0.08", "value": "neither hLIF nor culture medium delayed differentiation"}, {"measurement": "differentiation score on day two, study 2", "setting": "porcine ICM (pICM); [4]", "value": "2.70±0.16"}]}
{"molecule": "α2-macroglobulin: broad range protease inhibitor; apoptosis inhibitor added to PGC culture media at 1 μg/ml", "values": [{"measurement": "factor by which the lower dose is more effective in generating AP positive colonies", "setting": "PGC [2]; 0.5 μg/ml versus 1 μg/ml", "value": "~2"}, {"measurement": "ratio of AP positive colonies compared to control samples", "setting": "PGC [2]; α2-macroglobulin 0.5 μg/ml", "value": "1.98±0.36 and 1.43±0.27 and 1.70±0.41"}, {"measurement": "ratio of AP positive colonies compared to control samples", "setting": "PGC [2]; α2-macroglobulin 1 μg/ml", "value": "0.81±0.37 and 0.84±0.23 and 0.83±0.27"}, {"measurement": "number of colonies from third passage bovine PGC's", "setting": "bovine PGC's; media with α2-macroglobulin, 22 without", "value": 45}, {"measurement": "colonies appear earlier than without α2-macroglobulin", "setting": "bovine PGC's; on average", "value": "2 to 3", "unit": "days"}, {"measurement": "Normalized value", "setting": "cultured PGCs; 1st passage +, 2nd passage +", "value": "2052 colonies per 1000 colonies plated"}, {"measurement": "Normalized value", "setting": "cultured PGCs; 1st passage +, 2nd passage −", "value": "1512 colonies per 1000 colonies plated"}, {"measurement": "Normalized value", "setting": "cultured PGCs; 1st passage −, 2nd passage +", "value": "1422 colonies per 1000 colonies plated"}, {"measurement": "Normalized value", "setting": "cultured PGCs; first passage, media with 1 μg/ml α2-macroglobulin", "value": "22028 colonies per million cells"}, {"measurement": "Normalized value", "setting": "PGCs; pig 1, macerate", "value": "16395 colonies per million cells"}, {"measurement": "alkaline phosphatase positive colonies (replicates R1-R3)", "setting": "PGCs; pig 1, macerate", "value": "4712 and 5176 and 4368"}, {"measurement": "Normalized value", "setting": "PGCs; pig 1, teasing", "value": "18087 colonies per million cells"}, {"measurement": "alkaline phosphatase positive colonies (replicates R1-R3)", "setting": "PGCs; pig 1, teasing", "value": "4688 and 4960 and 5424"}, {"measurement": "Normalized value", "setting": "PGCs; pig 2, macerate", "value": "35865 colonies per million cells"}, {"measurement": "alkaline phosphatase positive colonies (replicates R1-R3)", "setting": "PGCs; pig 2, macerate", "value": "8312 and 7872 and 8896"}, {"measurement": "Normalized value", "setting": "PGCs; pig 2, teasing", "value": "37380 colonies per million cells"}, {"measurement": "alkaline phosphatase positive colonies (replicates R1-R3)", "setting": "PGCs; pig 2, teasing", "value": "6200 and 6008 and 6864"}]}
{"molecule": "B1", "values": [{"measurement": "effect on the number of resulting PGC colonies", "setting": "PGC [3]", "value": "some improvement"}]}
{"molecule": "B2", "values": [{"measurement": "differentiation score on day two, study 2", "setting": "porcine ICM (pICM); [4]", "value": "2.07±0.15"}, {"measurement": "overall mean differentiation score, study 2", "setting": "porcine ICM (pICM); scale 1 to 5, 4 day culture, rCNTF 100 ng/ml", "value": "2.53±0.15"}]}
